Here are results for 89 sequences from the OligoGym collection.

Bases are written 5' to 3'; sugars and linkages follow in the same order, as letters with counts (s phosphorothioate, o phosphodiester; PS: all linkages phosphorothioate). C may stand for cytosine or 5-methylcytosine; the collection does not tell. l = locked nucleic acid (LNA); d = 2'-deoxy (DNA)

For the series, the target named is HIF1A. In words: HeLa, 100 nM transfected, 24 h, mean of 3. The following applies: ASO.
Turning to TGGCAAGCATCCT (sugars l3 d8 l2, PS), the caspase activation (% of PBS control) amounted to 217.

As to “TGGCAAGCATCCT (sugars l2 d1 l1 d7 l2, PS)”, the caspase activation (% of PBS control) was determined as 361.

With “GTTACTGCCTTCTTAC (sugars ldllddddddddlldl, PS)”, the caspase activation (% of PBS control) turned out to be 192.

Take “GTTACTGCCTTCTTAC (sugars l1 d2 l1 d9 l3, PS)”: the caspase activation (% of PBS control) amounted to 131. “TGGCAAGCATCCTGTA (sugars l3 d8 l1 d3 l1, PS)” came in with a caspase activation (% of PBS control) of 230. As for “GTTACTGCCTTCTTAC (sugars ldddlddddddldldl, PS)”, the figure is 161. In turn, “GTTACTGCCTTCTTAC (sugars llldlddddddlddll, PS)” yielded a caspase activation (% of PBS control) of 283. For “GTTACTGCCTTCTTAC (sugars ldldldddddddllll, PS)”, the caspase activation (% of PBS control) is 257. As to “GTTACTGCCTTCTTAC (sugars l1 d2 l2 d6 l5, PS)”, the caspase activation (% of PBS control) came to 485. For the sequence “GTTACTGCCTTCTTAC (sugars llddldddddddlldl, PS)”, the caspase activation (% of PBS control) was determined as 330. The sequence “GTTACTGCCTTCTTAC (sugars l1 d10 l1 d3 l1, PS)” had a caspase activation (% of PBS control) of 127. Next, “GTTACTGCCTTCT (sugars l4 d6 l1 d1 l1, PS)”: 221; “GTTACTGCCTTCTTAC (sugars l1 d3 l1 d10 l1, PS)”: 130. As for “TGGCAAGCATCCT (sugars l2 d8 l1 d1 l1, PS)”, the figure is 407.

Sequence “GTTACTGCCTTCTTAC (sugars lddlddddddddlddl, PS)” returned a caspase activation (% of PBS control) of 112. Next, “GTTACTGCCTTCTTAC (sugars l5 d6 l2 d2 l1, PS)”: 492; “ACTGCCTTCTTAC (sugars l1 d1 l2 d6 l3, PS)”: 247. As for “GGCAAGCATCCTG (sugars l1 d1 l1 d8 l2, PS)”, the figure is 685; as for “GCAAGCATCCTGT (sugars l2 d1 l1 d7 l2, PS)”, 319. “GCAAGCATCCTGT (sugars l1 d1 l2 d7 l2, PS)”: the caspase activation (% of PBS control) was 220. As for “CAAGCATCCTGTA (sugars l4 d6 l1 d1 l1, PS)”, the figure is 159; as for “TGGCAAGCATCCTGTA (sugars l1 d10 l2 d1 l2, PS)”, 444. Next, GTTACTGCCTTCTTAC (sugars l1 d10 l5, PS): 350.

Regarding “CAAGCATCCTGTA (sugars ldldddddddldl, PS)”, the caspase activation (% of PBS control) came out at 136. As for GTTACTGCCTTCT (sugars l1 d11 l1, PS), the figure is 112; as for “GCAAGCATCCTGT (sugars l2 d8 l1 d1 l1, PS)”, 281. “TGGCAAGCATCCTGTA (sugars l5 d7 l1 d1 l2, PS)” yielded a caspase activation (% of PBS control) of 390. Next, “GTTACTGCCTTCTTAC (sugars l4 d8 l2 d1 l1, PS)”: 284.

“TTACTGCCTTCTT (sugars l1 d2 l1 d7 l2, PS)” returned a caspase activation (% of PBS control) of 126.

Consider “GTTACTGCCTTCTTAC (sugars ldlldddddddddldl, PS)”, for which the caspase activation (% of PBS control) is 142. Next, TGGCAAGCATCCTGTA (sugars l2 d12 l2, PS): 389; “TTACTGCCTTCTT (sugars l1 d1 l1 d9 l1, PS)”: 117. For TGGCAAGCATCCTGTA (sugars l3 d11 l2, PS), the caspase activation (% of PBS control) turned out to be 314. “TACTGCCTTCTTA (sugars l2 d1 l1 d7 l2, PS)” showed a caspase activation (% of PBS control) of 295.

Regarding ACTGCCTTCTTAC (sugars l3 d8 l2, PS), the caspase activation (% of PBS control) was 339. Next, “TGGCAAGCATCCT (sugars ldllddddddldl, PS)”: 377; GGCAAGCATCCTG (sugars l3 d7 l3, PS): 632. The sequence “GTTACTGCCTTCTTAC (sugars l1 d1 l2 d11 l1, PS)” came in with a caspase activation (% of PBS control) of 156.

“TGGCAAGCATCCTGTA (sugars llddlddddddldlll, PS)” displayed a caspase activation (% of PBS control) of 425. Sequence GTTACTGCCTTCTTAC (sugars l3 d12 l1, PS) showed a caspase activation (% of PBS control) of 127.

In turn, “GTTACTGCCTTCTTAC (sugars ldlddddddddddldl, PS)” registered a caspase activation (% of PBS control) of 119. “CAAGCATCCTGTA (sugars l2 d1 l1 d7 l2, PS)” displayed a caspase activation (% of PBS control) of 133.

ACTGCCTTCTTAC (sugars l2 d9 l2, PS) showed a caspase activation (% of PBS control) of 167. In turn, “GTTACTGCCTTCTTAC (sugars lldllddddddllldl, PS)” registered a caspase activation (% of PBS control) of 506. As for “TGGCAAGCATCCTGTA (sugars ldlddddddddlddll, PS)”, the figure is 218; as for “GGCAAGCATCCTG (sugars l1 d9 l1 d1 l1, PS)”, 390. As for “TACTGCCTTCTTA (sugars l1 d2 l1 d7 l2, PS)”, the figure is 156; as for TACTGCCTTCTTA (sugars l1 d9 l3, PS), 158. As for “GTTACTGCCTTCTTAC (sugars l3 d10 l1 d1 l1, PS)”, the figure is 161; as for “TGGCAAGCATCCTGTA (sugars llddlddddddddldl, PS)”, 215. Take TGGCAAGCATCCTGTA (sugars l2 d11 l3, PS): the caspase activation (% of PBS control) was 365. Next, “TGGCAAGCATCCTGTA (sugars lldllddddddllddl, PS)”: 354. Next, “GTTACTGCCTTCT (sugars lddlddddddldl, PS)”: 110. Sequence “GTTACTGCCTTCTTAC (sugars llddlddddddldlll, PS)” displayed a caspase activation (% of PBS control) of 220. For the sequence “GTTACTGCCTTCTTAC (sugars lldlldddddddldll, PS)”, the caspase activation (% of PBS control) was 293. In the case of “TGGCAAGCATCCTGTA (sugars lldlddddddddlddl, PS)”, the caspase activation (% of PBS control) came out at 604.

For “GCAAGCATCCTGT (sugars l1 d9 l1 d1 l1, PS)”, the caspase activation (% of PBS control) amounted to 124. For “TACTGCCTTCTTA (sugars l3 d7 l1 d1 l1, PS)”, the caspase activation (% of PBS control) was determined as 368. Next, “TGGCAAGCATCCTGTA (sugars ldldlddddddlddll, PS)”: 178; “TGGCAAGCATCCT (sugars ldldddddddldl, PS)”: 170. “GTTACTGCCTTCTTAC (sugars lddlldddddddlddl, PS)” came in with a caspase activation (% of PBS control) of 229. “TTACTGCCTTCTT (sugars l1 d2 l1 d6 l3, PS)” came in with a caspase activation (% of PBS control) of 131. As for “GTTACTGCCTTCTTAC (sugars ldddlddddddlddll, PS)”, the figure is 133; as for “TGGCAAGCATCCTGTA (sugars lddllddddddddldl, PS)”, 397. Next, GTTACTGCCTTCTTAC (sugars l3 d10 l3, PS): 134. Next, “TGGCAAGCATCCTGTA (sugars ldlddddddddllldl, PS)”: 254; “TGGCAAGCATCCTGTA (sugars ldlllddddddldlll, PS)”: 476. With GTTACTGCCTTCTTAC (sugars l2 d13 l1, PS), the caspase activation (% of PBS control) was 102. For the sequence “CAAGCATCCTGTA (sugars l1 d1 l1 d9 l1, PS)”, the caspase activation (% of PBS control) was 121. As for “TGGCAAGCATCCTGTA (sugars lddllddddddllldl, PS)”, the figure is 416; as for “GTTACTGCCTTCTTAC (sugars l3 d8 l2 d2 l1, PS)”, 273; as for “GTTACTGCCTTCTTAC (sugars l5 d7 l1 d1 l2, PS)”, 454. Regarding ACTGCCTTCTTAC (sugars l1 d11 l1, PS), the caspase activation (% of PBS control) was 130.

The sequence “TGGCAAGCATCCTGTA (sugars lllddddddddldldl, PS)” returned a caspase activation (% of PBS control) of 385. The sequence “GTTACTGCCTTCTTAC (sugars ldddlddddddllddl, PS)” displayed a caspase activation (% of PBS control) of 125.

In turn, “GTTACTGCCTTCTTAC (sugars ldldlddddddlllll, PS)” came in with a caspase activation (% of PBS control) of 342. For “TGGCAAGCATCCTGTA (sugars llldlddddddldddl, PS)”, the caspase activation (% of PBS control) was 253. Turning to “GTTACTGCCTTCTTAC (sugars l3 d1 l1 d6 l5, PS)”, the caspase activation (% of PBS control) was found to be 474. “GTTACTGCCTTCTTAC (sugars ldlldddddddllldl, PS)”: the caspase activation (% of PBS control) amounted to 365.

The sequence “TGGCAAGCATCCTGTA (sugars ldlddddddddldddl, PS)” displayed a caspase activation (% of PBS control) of 160. Sequence “GTTACTGCCTTCTTAC (sugars l2 d9 l2 d1 l2, PS)” registered a caspase activation (% of PBS control) of 223. With “GTTACTGCCTTCTTAC (sugars llldldddddddldll, PS)”, the caspase activation (% of PBS control) was 274. For the sequence “GTTACTGCCTTCTTAC (sugars l3 d1 l1 d10 l1, PS)”, the caspase activation (% of PBS control) was found to be 185. “TGGCAAGCATCCTGTA (sugars l4 d7 l2 d2 l1, PS)” returned a caspase activation (% of PBS control) of 528. As for “GTTACTGCCTTCTTAC (sugars l1 d1 l1 d8 l5, PS)”, the figure is 298. Next, GCAAGCATCCTGT (sugars l4 d8 l1, PS): 344; “GTTACTGCCTTCTTAC (sugars ldldldddddddlldl, PS)”: 280.

As for “TGGCAAGCATCCTGTA (sugars lddldddddddldddl, PS)”, the caspase activation (% of PBS control) was found to be 173.

Regarding “TGGCAAGCATCCTGTA (sugars lddllddddddldlll, PS)”, the caspase activation (% of PBS control) was determined as 353.
